Reference: US12077503B2, “Substituted cyclic amides and their use as herbicides” (FMC CORPORATION, priority 2015, dated 2024)
Read-outs that look alike come from different tables or passages of the source.

Legend:
Format in all cases: in vivo
[1] = tested on: Kochia (Kochia scoparia); experiment: Test A preemergence; conditions: Bassia scoparia, pre-emergence, 240 h, preemergence, read-out: Kochia plant response rating; for pest or weed control at 125 g/ha: 125 g ai/ha, approx. 10 d; for pest or weed control at 500 g/ha: 500 g ai/ha
Summary of the method: (§1)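 Preemergence soil spray on seeded pots or post-emergence spray on 1–2 leaf plants, in loam–sand blend. Greenhouse ~10 d. Visual rating 0–100 against untreated plants.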

[2] = tested on: barnyardgrass (Echinochloa crus-galli); experiment: Test A preemergence; conditions: Echinochloa crus-galli, pre-emergence, 240 h, preemergence, read-out: Barnyardgrass plant response rating; for pest or weed control at 125 g/ha: 125 g ai/ha, 0 to 100 scale where 0 is no effect and 100 is complete control, approx. 10 d; for pest or weed control at 500 g/ha: 500 g ai/ha, visual injury rating about 10 d after treatment, 0 to 100 scale (0 no effect, 100 complete control)
Summary of the method: as §1

[3] = tested on: giant foxtail (Setaria faberii); experiment: Test A preemergence; conditions: Setaria faberi, pre-emergence, 240 h, preemergence, read-out: Foxtail, Giant plant response rating; for pest or weed control at 125 g/ha: 125 g ai/ha, approx. 10 d; for pest or weed control at 500 g/ha: 500 g ai/ha
Summary of the method: as §1

[4] = tested on: pigweed (Amaranthus retroflexus); experiment: Test A preemergence; conditions: Amaranthus retroflexus, pre-emergence, 240 h, preemergence, read-out: Pigweed plant response rating; for pest or weed control at 125 g/ha: 125 g ai/ha, approx. 10 d; for pest or weed control at 500 g/ha: 500 g ai/ha
[5] = tested on: ragweed (common ragweed, Ambrosia elatior); experiment: Test A preemergence; conditions: Ambrosia artemisiifolia, pre-emergence, 240 h, preemergence, read-out: Ragweed plant response rating; for pest or weed control at 125 g/ha: 125 g ai/ha, approx. 10 d; for pest or weed control at 500 g/ha: 500 g ai/ha
Summary of the method: as §1

[6] = tested on: ryegrass, Italian (Italian ryegrass, Lolium multiflorum); experiment: Test A preemergence; conditions: Lolium multiflorum, pre-emergence, 240 h, preemergence, read-out: Ryegrass, Italian plant response rating; for pest or weed control at 125 g/ha: 125 g ai/ha, approx. 10 d; for pest or weed control at 500 g/ha: 500 g ai/ha
Summary of the method: as §1

[7] = tested on: blackgrass (Alopecurus myosuroides); experiment: Test A postemergence; conditions: Alopecurus myosuroides, post-emergence, 240 h, postemergence, read-out: Blackgrass plant response rating; for pest or weed control at 125 g/ha: 125 g ai/ha, visual injury on 0 to 100 scale (0 no effect, 100 complete control), approx. 10 d; for pest or weed control at 500 g/ha: 500 g ai/ha, 0 to 100 scale, 0 is no effect, 100 is complete control
Summary of the method: as §1

[8] = tested on: corn (Zea mays); experiment: Test A postemergence; conditions: Zea mays, post-emergence, 240 h, postemergence, read-out: Corn plant response rating; for plant injury at 125 g/ha: 125 g ai/ha, visual injury on 0 to 100 scale (0 no effect, 100 complete control), approx. 10 d; for plant injury at 500 g/ha: 500 g ai/ha, 0 to 100 scale, 0 is no effect, 100 is complete control
Summary of the method: as §1

[9] = tested on: pigweed (Amaranthus retroflexus); experiment: Test A postemergence; conditions: Amaranthus retroflexus, post-emergence, 240 h, postemergence, read-out: Pigweed plant response rating; for pest or weed control at 125 g/ha: 125 g ai/ha, visual injury on 0 to 100 scale (0 no effect, 100 complete control), approx. 10 d; for pest or weed control at 500 g/ha: 500 g ai/ha, 0 to 100 scale, 0 is no effect, 100 is complete control
Summary of the method: as §1

[10] = tested on: ragweed (common ragweed, Ambrosia elatior); experiment: Test A postemergence; conditions: Ambrosia artemisiifolia, post-emergence, 240 h, postemergence, read-out: Ragweed plant response rating; for pest or weed control at 125 g/ha: 125 g ai/ha, visual injury on 0 to 100 scale (0 no effect, 100 complete control), approx. 10 d; for pest or weed control at 500 g/ha: 500 g ai/ha, 0 to 100 scale, 0 is no effect, 100 is complete control
Summary of the method: as §1

[11] = tested on: ryegrass, Italian (Italian ryegrass, Lolium multiflorum); experiment: Test A postemergence; conditions: Lolium multiflorum, post-emergence, 240 h, postemergence, read-out: Ryegrass, Italian plant response rating; for pest or weed control at 125 g/ha: 125 g ai/ha, visual injury on 0 to 100 scale (0 no effect, 100 complete control), approx. 10 d; for pest or weed control at 500 g/ha: 500 g ai/ha, 0 to 100 scale, 0 is no effect, 100 is complete control
Summary of the method: as §1

[12] = tested on: barnyardgrass (Echinochloa crus-galli); experiment: Test B flooded paddy test; conditions: Echinochloa crus-galli, 250 g ai/ha, Flood; 0 to 100 scale where 0 is no effect and 100 is complete control; read-out: Barnyardgrass plant response rating
Summary of the method: (§2)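 Compound goes directly into floodwater once pots are flooded 3 cm above soil, targeting plants at two leaves; the water depth is then held for the test duration. Plants sit 13–15 d in a greenhouse and are rated visually, 100 denoting complete control.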

[13] = tested on: ducksalad (Heteranthera limosa); experiment: Test B flooded paddy test; conditions: Heteranthera limosa, 250 g ai/ha, Flood; 0 to 100 scale where 0 is no effect and 100 is complete control; read-out: Ducksalad plant response rating
Summary of the method: as §2

[14] = tested on: rice (Oryra sativa); experiment: Test B flooded paddy test; conditions: Oryza sativa, 250 g ai/ha, Flood; 0 to 100 scale where 0 is no effect and 100 is complete control; read-out: Rice plant response rating
Summary of the method: as §2

[15] = tested on: sedge, umbrella (small-flower umbrella sedge, Cyperus difformis); experiment: Test B flooded paddy test; conditions: Cyperus difformis, 250 g ai/ha, Flood; 0 to 100 scale where 0 is no effect and 100 is complete control; read-out: Sedge, Umbrella plant response rating
Summary of the method: as §2

[16] = 0 to 100 scale where 0 is no effect and 100 is complete control
[17] = visual injury rating about 10 d after treatment, 0 to 100 scale (0 no effect, 100 complete control)

O=C1NC[C@H](c2csc(C(F)F)c2)[C@H]1C(=O)Nc1ccccc1F [Compound 1118]
pest or weed control at 125 g/ha [1, 16]: 0%
pest or weed control at 500 g/ha [1, 16]: 70%
pest or weed control at 125 g/ha [2]: 80%
pest or weed control at 500 g/ha [2]: 90%
pest or weed control at 125 g/ha [3, 16]: 60%
pest or weed control at 500 g/ha [3, 16]: 90%
pest or weed control at 125 g/ha [4, 16]: 0%
pest or weed control at 500 g/ha [4, 16]: 0%
pest or weed control at 125 g/ha [5, 16]: 20%
pest or weed control at 500 g/ha [5, 16]: 60%
pest or weed control at 125 g/ha [6, 16]: 40%
pest or weed control at 500 g/ha [6, 16]: 50%
pest or weed control at 125 g/ha [7]: 20%
pest or weed control at 500 g/ha [7]: 60%
plant injury at 125 g/ha [8]: 0%
plant injury at 500 g/ha [8]: 20%
pest or weed control at 125 g/ha [9]: 0%
pest or weed control at 500 g/ha [9]: 20%
pest or weed control at 125 g/ha [10]: 0%
pest or weed control at 500 g/ha [10]: 20%
pest or weed control at 125 g/ha [11]: 20%
pest or weed control at 500 g/ha [11]: 50%
pest or weed control at 250 g/ha [12]: 65%
pest or weed control at 250 g/ha [13]: 100%
pest or weed control at 250 g/ha [14]: 40%
pest or weed control at 250 g/ha [15]: 0%

C/C=C/N1C[C@@H](c2cccc(C(F)(F)F)c2)[C@H](C(=O)Nc2ccccc2F)C1=O (racemic) [Compound 1094]
pest or weed control at 125 g/ha [1, 16]: 0%
pest or weed control at 500 g/ha [1, 17]: 0%
pest or weed control at 125 g/ha [2]: 0%
pest or weed control at 500 g/ha [2]: 80%
pest or weed control at 125 g/ha [3, 16]: 90%
pest or weed control at 500 g/ha [3, 17]: 100%
pest or weed control at 125 g/ha [4, 16]: 0%
pest or weed control at 500 g/ha [4, 17]: 0%
pest or weed control at 125 g/ha [5, 16]: 0%
pest or weed control at 500 g/ha [5, 17]: 0%
pest or weed control at 125 g/ha [6, 16]: 0%
pest or weed control at 500 g/ha [6, 17]: 0%
pest or weed control at 125 g/ha [7]: 0%
pest or weed control at 500 g/ha [7]: 30%
plant injury at 125 g/ha [8]: 0%
plant injury at 500 g/ha [8]: 0%
pest or weed control at 125 g/ha [9]: 0%
pest or weed control at 500 g/ha [9]: 20%
pest or weed control at 125 g/ha [10]: 0%
pest or weed control at 500 g/ha [10]: 0%
pest or weed control at 125 g/ha [11]: 0%
pest or weed control at 500 g/ha [11]: 20%
pest or weed control at 250 g/ha [12]: 45%
pest or weed control at 250 g/ha [13]: 0%
pest or weed control at 250 g/ha [14]: 0%
pest or weed control at 250 g/ha [15]: 0%
